Assay results: US20110091638A1, “METHOD OF ANIMAL SLAUGHTER” (priority 2007, published 2011)

Experiments:
[1] = system: Mackerel (Scomber scombrus); assay: Mackerel transferred into CO saturated seawater
Description: (§1) Mackerel (Scomber scombrus) of about 700 g bodyweight were transferred from seawater into CO saturated seawater at about 16° C. in a 1 m×1 m plastic tank. CO saturation was achieved by pre-flushing the seawater (250 L) with 99.3% pure carbon monoxide (from Yara AS, Norway) for 5 minutes at 2.0 bar through two Wedge-lock diffusers (from Sterner Aqua, Norway). The CO content was monitored and never exceeded 50 ppm in the vicinity of the tank.

[2] = system: Atlantic salmon (Salmo salar); assay: Atlantic salmon transferred into CO saturated seawater
Description: as §1
Atlantic salmon (Salmo salar) of 0.7 to 1.5 kg bodyweight were transferred from seawater into CO saturated seawater (as in Example 1).

[3] = system: Atlantic halibut (Hippoglossus hippoglossus); assay: Atlantic halibut transferred into CO saturated seawater
Description: as §1
Atlantic halibut (Hippoglossus hippoglossus) of about 1.5 kg bodyweight were transferred into CO saturated seawater (as in Example 1).

**Q.** What does the source list for `[C-]#[O+]` [carbon monoxide]?
**A.** time until fish showed signs of fatigue ([1]; about 16° C., mackerel about 700 g): about 5 minutes; further exposure time until fish died and turned belly up ([1]; continued exposure after signs of fatigue): 5 min; further exposure time until fish died and turned belly up ([2]; continued exposure after anaesthesia): more than one; time until fish were relaxed, sedated and finally anesthetised ([2]; salmon 0.7 to 1.5 kg): about 5 minutes; signs of stress or discomfort during exposure ([2]; until anaesthesia): no signs of stress or discomfort; further exposure time until fish died ([3]; continued exposure after loss of flight reaction): two; time until flight reaction was not pronounced ([3]; halibut about 1.5 kg): about 2 minutes
